Drawing on US7754713B2, “4-benzimidazol-2-ylpyridazin-3-one derivatives” (Aventis Pharma S.A., priority 2004, dated 2010), this text covers IC50 and melting point for four molecules.

In one data set the target is CDK2/Cyclin E (Homo sapiens, UniProt P24941). The experiment in a line: CDK2/Cyclin E kinase flashplate assay (33P incorporation into biotinylated Rb peptide). The data set is classed as biochemical. As to conditions: CDK2/Cyclin E 20 nM, ATP 1 μM, Rb peptide 10 μM, 30 minute at 30° C. As to the method:
Functional Measurements to Ascertain IC50 Values:
A 96-well streptavidin-coated flashplate is used to assay potency of compounds according to formula (I) against CDK2/Cyclin E kinase. To carry out the assay, biotinylated-Rb peptide substrate (Biotin-[…]-OH) is solubilized at 1 mM in kinase buffer (Hepes 50 mM, NaCl 1 mM, MgCl2 5 mM pH 7.5) as a stock solution conserved at −20° C. in aliquots of 110 μl. The day of the experiment, an aliquot of this solution is thawed and diluted to 14.3 μM in kinase buffer, containing 1 mM dithithreitol (DTT) added in the buffer extemporarily.
70 μl of this solution is added in each well of the flashplate in order to achieve a final concentration of 10 μM (100 μl reactionnal volume). […] 10 μl of each of these solutions (or 10 μl of buffer+DTT for controls) are transferred to the testplate wells in order to achieve 10 μM, 3.33 μM, 1.11 μM, 0.37 μM, 0.12 μM, 0.04 μM and 0.01 μM as final concentrations, 1% DMSO (vol/vol). In each well, 10 μl of a solution of a mix of ^33PγATP/ATP are added in order to achieve 1 μM final concentration and a total of 1 μCi. The kinase reaction is initiated by addition of 10 μl of a solution at 200 nM of CDK2/Cyclin E in kinase buffer+DTT (or buffer+DTT for blanks) in order to achieve 20 nM final concentration. After addition of each reagent, the test-plate is shaked. The plates are incubated 30 minute at 30° C. with a shaking at 650 rpm. At the end of the incubation, the plates are washed 3 times with 300 μl of PBS (without calcium and magnesium) per well. The incorporation of ^33P to the peptide is measured by scintillation counting.

On to `O=c1[nH]nc(-c2ccncc2)cc1-c1nc2ccc(Cl)cc2[nH]1` [Example 5, 4-(6-Chloro-1H-benzimidazol-2-yl)-6-pyridin-4-yl-2H-pyridazin-3-one], for which 0.026 µM corresponded to half-maximal inhibition at CDK2/Cyclin E (IC50). Regarding `CN1CCN(CCCNC(=O)c2ccc3nc(-c4cc(-c5ccncc5)n[nH]c4=O)[nH]c3c2)CC1` [Example 9, 2-(3-Oxo-6-pyridin-4-yl-2,3-dihydropyridazin-4-yl)-1H-benzimidazole-5-carboxylic acid [3-(4-methylpiperazin-1-yl)propyl]amide], the melting point (usually the temperature of the solid-liquid transition) was > 30 °C (dec.).

Consider `COC(=O)c1ccc2nc(-c3cc(-c4ccncc4)n[nH]c3=O)[nH]c2c1` [Example 1, Methyl 2-(3-oxo-6-pyridin-4-yl-2,3-dihydropyridazin-4-yl)-1H-benzimidazole-5-carboxylate], for which half-maximal inhibition on CDK2/Cyclin E (IC50) was put at 0.124 µM.

For `O=c1[nH]nc(-c2ccncc2)cc1-c1nc2ccc(C(F)(F)F)cc2[nH]1` [Example 6, 4-(6-Trifluoromethyl-1H-benzimidazol-2-yl)-6-pyridin-4-yl-2H-pyridazin-3-one], on CDK2/Cyclin E, the IC50 (as a rule, the concentration that inhibits the measured activity by half) stood at 0.214 µM. Compared with the last molecule, the IC50 is about 1.7-fold higher.
